Experimental data from US6495571B1, “Pyridine compounds, use and preparation thereof” (Southern Research Institute, priority 1999, dated 2002).
Where two headings read alike, the source gives them in different places. Marks after values point to notes of the source that are not given here.

Key:
[1] = test system: human MX-1 mammary tumor (ic, 10^6 cells); assay: In vivo antitumor activity, i.c.-implanted MX-1 xenograft; details: for Median % ILS (dying mice only) / Tumor-Free-Surv/Total: Days 1-5; for Median % ILS (based on dying mice only) / Survivors: optimal doses (LD10 or less), schedule QD1-5, administered LP.
[2] = test system: P388/L-PAM (melphalan-resistant) leukemia
Cytotoxicity in vitro = type: cell-based
[3] = test system: P388/BCNU (carmustine-resistant) leukemia; assay: Antitumor activity against IP-implanted P388/BCNU leukemia
[4] = test system: P388/CPA (cyclophosphamide-resistant) leukemia; type: in vivo, CD2F1 female mice
cancer = assay: Anti-cancer activity (test not specified)
[5] = test system: human MX-1 mammary tumor (sc, 30-40 mg fragments); assay: In vivo antitumor activity, s.c.-implanted MX-1 xenograft; set-up: species or system Athymic mice (Ncr-nu)
[6] = IP 60.0 mg/kg/dose, Q1D × 5 (1)
[7] = IP 90.0 mg/kg/dose, Q1D × 5 (1)
[8] = IP 135.0 mg/kg/dose, Q1D × 5 (1)
[9] = oral (gavage) 135 mg/kg/dose, Days 13-17
[10] = oral (gavage) 135 mg/kg/dose, Days 12-16
[11] = IP 20.0 mg/kg/dose, Q1D × 1 (1)
[12] = IP 30.0 mg/kg/dose, Q1D × 1 (1)
[13] = IP 175.0 mg/kg/dose, Q1D × 1 (1)
[14] = IP 265.0 mg/kg/dose, Q1D × 1 (1)
[15] = IP 15.0 mg/kg/dose, Q1D × 1 (1)

In the case of `CCCCCCCC(=O)Oc1c(Cl)c(OC)nc(C(Cl)(Cl)Cl)c1Cl` [DM-O-PEN], the “Median % ILS (dying mice only)” value ([1]; IP 90 mg/kg/dose) was “+121%”, the Tumor-Free-Surv/Total ([1]; IP 90 mg/kg/dose) was 0/5 and the “activity against i.c.-implanted tumor (in words)” value ([1]; in comparison to PEN and DM-PEN) was “significant activity”. The “Median % ILS (based on dying mice only)” value [1] was 121^b % and the Survivors [1] was 0/5.
With `COc1nc(C(Cl)(Cl)Cl)c(Cl)c(O)c1Cl` [DM-PEN, 3,5-dichloro-2-methoxy-4-hydroxy-6-(trichloromethyl)pyridine] the “50-DAY SURV./TOTAL” value (P388/0 murine leukemia; [6]) was 0/6, the “50-DAY SURV./TOTAL” value (P388/0 murine leukemia; [7]) was 0/6 and the “MEDIAN DAY OF DEATH” value (P388/0 murine leukemia; [7]) was 19.0. The “50-DAY SURV./TOTAL” value (P388/0 murine leukemia; [8]) was 0/6, the “APPROX. NET LOG10 CHANGE IN TUMOR BURDEN AT END OF Rx” value (P388/0 murine leukemia; [8]) was “TOXIC” and the “MEDIAN DAY OF DEATH” value (P388/0 murine leukemia; [8]) was 8.5. The “50-DAY SURV./TOTAL” value [2, 6] was 0/6, the “MEDIAN DAY OF DEATH” value [2, 6] was 13.5 and the “50-DAY SURV./TOTAL” value [2, 7] was 0/6. The “50-DAY SURV./TOTAL” value [2, 8] was 0/6, the “Lethality of the dosage (LD mark beside % ILS)” value [2, 8] was “LD33” and the “activity in this tumor model (in words)” value ([2]; mouse, in vivo) was “none of the three showed significant activity”. For the same molecule, the “activity as cytotoxic agents in vitro” value (Cytotoxicity in vitro) was “inactive”, the cures ([1]; Table 2 conditions) was “not” and the “Median % ILS (based on dying mice only)” value [1] was 60%. The Survivors [1] was 0/5, the “50-DAY SURV./TOTAL” value [3, 6] was 0/6 and the “% ILS” value [3, 6] was “+33%”. For the same molecule, the “APPROX. NET LOG10 CHANGE IN TUMOR BURDEN AT END OF Rx” value [3, 6] was “+0.8”, the “50-DAY SURV./TOTAL” value [3, 7] was 0/6 and the “APPROX. NET LOG10 CHANGE IN TUMOR BURDEN AT END OF Rx” value [3, 7] was −0.6. For the same molecule, the “MEDIAN DAY OF DEATH” value [3, 7] was 14.0, the “50-DAY SURV./TOTAL” value [3, 8] was 0/6 and the “% ILS” value [3, 8] was “+88%”. For the same molecule, the “Lethality of the dosage (LD mark beside % ILS)” value [3, 8] was “LD17”, the “50-DAY SURV./TOTAL” value [4, 6] was 0/6 and the “% ILS” value [4, 6] was “+22%”. For the same molecule, the “MEDIAN DAY OF DEATH” value [4, 6] was 13.5, the “50-DAY SURV./TOTAL” value [4, 7] was 0/6 and the “% ILS” value [4, 7] was “+54%”. For the same molecule, the “50-DAY SURV./TOTAL” value [4, 8] was 0/6, the “% ILS” value [4, 8] was “+31%” and the “MEDIAN DAY OF DEATH” value [4, 8] was 14.5.
For `CCOc1nc(C(Cl)(Cl)Cl)c(Cl)c(OCC)c1Cl` [3,5-dichloro-4,6-diethoxy-2-(trichloromethyl)pyridine], the “anti-cancer activity (in words)” value (cancer) was “active anti-cancer activity”.
In the case of `COc1nc(C(Cl)(Cl)Cl)c(Cl)c(OC(=O)C(C)(C)C)c1Cl` [DM-P-PEN], the “Median % ILS (dying mice only)” value ([1]; IP 135 mg/kg/dose) was “+64%”, the Tumor-Free-Surv/Total ([1]; IP 135 mg/kg/dose) was 0/5 and the “Median % ILS (dying mice only)” value ([1]; oral (gavage) 135 mg/kg/dose) was “+20%”. For the same molecule, the Tumor-Free-Surv/Total ([1]; oral (gavage) 135 mg/kg/dose) was 0/5, the T-C ([5]; IP 135 mg/kg/dose, Days 11-15) was greater than 42.7 days and the Tumor-Free-Surv/Total ([5]; IP 135 mg/kg/dose, Days 11-15) was 5/5. For the same molecule, the T-C [5, 9] was 0.9 days and the Tumor-Free-Surv/Total [5, 9] was 0/5.
For `COc1nc(C(Cl)(Cl)Cl)c(Cl)c(OC(=O)CBr)c1Cl` [DM-BA-PEN], the T-C ([5]; IP 135 mg/kg/dose, Days 12-16) was greater than 41.0 days and the Tumor-Free-Surv/Total ([5]; IP 135 mg/kg/dose, Days 12-16) was 2/5.
For `COc1nc(C(Cl)(Cl)Cl)c(Cl)c(OC(=O)CCl)c1Cl` [DM-CA-PEN], the “Median % ILS (dying mice only)” value ([1]; oral (gavage) 135 mg/kg/dose) was “+84%”, the Tumor-Free-Surv/Total ([1]; oral (gavage) 135 mg/kg/dose) was 2/5 and the T-C ([5]; IP 60 mg/kg/dose, Days 12-16) was greater than 41.0 days. The Tumor-Free-Surv/Total ([5]; IP 60 mg/kg/dose, Days 12-16) was 3/5, the T-C [5, 10] was greater than 41.0 days and the Tumor-Free-Surv/Total [5, 10] was 5/5.
For `COc1nc(C(Cl)(Cl)Cl)c(Cl)c(OC(=O)c2ccc(CCl)cc2)c1Cl` [DM-CMB-PEN], the “Median % ILS (dying mice only)” value ([1]; IP 90 mg/kg/dose) was “+73%” and the Tumor-Free-Surv/Total ([1]; IP 90 mg/kg/dose) was 0/5.
With `COc1nc(C(Cl)(Cl)Cl)c(Cl)c(OC(=O)c2ccc([N+](=O)[O-])cc2)c1Cl` [DM-NB-PEN] the T-C ([5]; IP 135 mg/kg/dose, Days 12-16) was greater than 38.6 days and the Tumor-Free-Surv/Total ([5]; IP 135 mg/kg/dose, Days 12-16) was 5/5.
For `COc1nc(C(Cl)(Cl)Cl)c(Cl)c(OC(=O)c2ccncc2)c1Cl` [DM-IN-PEN], the T-C ([5]; IP 90 mg/kg/dose, Days 12-16) was greater than 38.6 days, the Tumor-Free-Surv/Total ([5]; IP 90 mg/kg/dose, Days 12-16) was 3/5 and the “IP dosage marked (LD50)” value ([5]; IP, Days 12-16, sc MX-1 bearing mice) was 90 (LD50) mg/kg/dose.
For `O=NN(CCCl)C(=O)NCCCl` [BCNU (carmustine), carmustine], the “50-DAY SURV./TOTAL” value (P388/0 murine leukemia; [11]) was 3/6, the “50-DAY SURV./TOTAL” value (P388/0 murine leukemia; [12]) was 6/6 and the “50-DAY SURV./TOTAL” value [3, 11] was 0/6. For the same molecule, the “% ILS” value [3, 11] was 0%, the “50-DAY SURV./TOTAL” value [3, 12] was 0/6 and the “% ILS” value [3, 12] was −6%. For the same molecule, the “MEDIAN DAY OF DEATH” value [3, 12] was 8.5.
For `O=P1(N(CCCl)CCCl)NCCCO1` (stereo not shown) [CPA (cycloposphamide), cyclophosphamide], the “50-DAY SURV./TOTAL” value (P388/0 murine leukemia; [13]) was 1/6, the “% ILS” value (P388/0 murine leukemia; [13]) was “+172%” and the “APPROX. NET LOG10 CHANGE IN TUMOR BURDEN AT END OF Rx” value (P388/0 murine leukemia; [13]) was “ca −6.8”. For the same molecule, the “50-DAY SURV./TOTAL” value (P388/0 murine leukemia; [14]) was 6/6, the “50-DAY SURV./TOTAL” value [4, 13] was 0/6 and the “% ILS” value [4, 13] was “+9%”. The “APPROX. NET LOG10 CHANGE IN TUMOR BURDEN AT END OF Rx” value [4, 13] was −0.6, the “50-DAY SURV./TOTAL” value [4, 14] was 0/6 and the “% ILS” value [4, 14] was “+27%”. For the same molecule, the “APPROX. NET LOG10 CHANGE IN TUMOR BURDEN AT END OF Rx” value [4, 14] was −1.7.
With `N[C@@H](Cc1ccc(N(CCCl)CCCl)cc1)C(=O)O` [L-PAM (melphalan), melphalan] the “50-DAY SURV./TOTAL” value (P388/0 murine leukemia; [15]) was 6/6, the “50-DAY SURV./TOTAL” value (P388/0 murine leukemia; [11]) was 5/6 and the “% ILS” value (P388/0 murine leukemia; [11]) was “+208%”. The “APPROX. NET LOG10 CHANGE IN TUMOR BURDEN AT END OF Rx” value (P388/0 murine leukemia; [11]) was “ca −6.8”, the “MEDIAN DAY OF DEATH” value (P388/0 murine leukemia; [11]) was 34.0 and the “50-DAY SURV./TOTAL” value [2, 15] was 0/6. The “% ILS” value [2, 15] was “+14%”, the “APPROX. NET LOG10 CHANGE IN TUMOR BURDEN AT END OF Rx” value [2, 15] was −1.8 and the “MEDIAN DAY OF DEATH” value [2, 15] was 18.0. For the same molecule, the “50-DAY SURV./TOTAL” value [2, 11] was 0/6, the “% ILS” value [2, 11] was “+14%” and the “APPROX. NET LOG10 CHANGE IN TUMOR BURDEN AT END OF Rx” value [2, 11] was −1.8. For the same molecule, the “MEDIAN DAY OF DEATH” value [2, 11] was 18.0.
With `COC(=O)CCC(=O)Oc1c(Cl)c(OC)nc(C(Cl)(Cl)Cl)c1Cl` [DM-CMP-PEN] the “Median % ILS (dying mice only)” value ([1]; IP 90 mg/kg/dose) was “+87%”, the Tumor-Free-Surv/Total ([1]; IP 90 mg/kg/dose) was 1/5 and the “Median % ILS (dying mice only)” value ([1]; oral (gavage) 90 mg/kg/dose) was “+76%”. The Tumor-Free-Surv/Total ([1]; oral (gavage) 90 mg/kg/dose) was 1/5, the T-C ([5]; IP 135 mg/kg/dose, Days 11-15) was greater than 42.7 days and the Tumor-Free-Surv/Total ([5]; IP 135 mg/kg/dose, Days 11-15) was 3/5. The T-C [5, 9] was greater than 38.5 days and the Tumor-Free-Surv/Total [5, 9] was 2/5.
